Results: US20170028005A1, “NATURAL SWEETENER” (NATGOOD IP, LLC, priority 2014, published 2017)

Legend:
blood glucose response [1] = assay: A Glycemic Response Test; assay type: in vivo; details: 30 grams in water after fast; blood glucose every 15 minutes for 90 minutes
Procedure: Under an Institutional Review Board approved, controlled clinical trial, subjects undergo a pre-test fast for at least 20 hours and then consume 30 grams of glucose, or an equal amount of sweetener in water. Blood glucose measurements are then made every 15 minutes for 90 minutes and the blood glucose response is recorded. A sweetener is considered to pass the test when then blood glucose response is less than 5% of glucose.

blood glucose response [2] = assay: A Repression Test; assay type: in vivo; design: key: PASS: pass the repression test when then blood glucose response is much lower than expected for the combination of; details: product (e.g. cupcake) with other nutritive carbohydrates
Procedure: Under controlled study scenario subjects fast, then consume a product (e.g. a cupcake) that contains other nutritive carbohydrates and the glycemic response is assessed by established methods. The glycemic response to the nutritive carbohydrates is compared to the glycemic response to the nutritive carbohydrates in the presence of the sweetener or sugar.

blood glucose level [3] = details: values used for the expected GI; cited from earlier work
blood glucose level [4] = assay: Glycemic index (GI) of NSC formulations (Example 2); assay type: in vivo, human
Procedure: Glycemic index can be measured by any suitable methodology. For example, to determine a food's GI value, measured portions of the food containing 50 grams of available carbohydrate (or 25 grams of available carbohydrate for foods that contain lower amounts of carbohydrate) may be fed to 10 healthy people after an overnight fast. Finger-prick blood samples can be taken at 15-30 minute intervals over the next two hours. These blood samples can be used to construct a blood sugar response curve for the two hour period. The incremental area under the curve (iAUC) is calculated to reflect the total rise in blood glucose levels after eating the test food. The GI value is calculated by dividing the iAUC for the test food by the iAUC for the reference food (same amount of glucose) and multiplying by 100. The average of the GI ratings from all ten subjects is designated as the GI for that food. […] The effect on the GI response for different NSC formulations was assessed. Four formulations, designated F1-F4, containing tagatose, monkfruit, stevia extract, erythritol, xanthan gum and either maltitol or lactitol were prepared as indicated in Table 1. The glycemic index for each formulation was calculated based on the glycemic index for the individual components taking into account the weight percent of the component in the formulation. Monkfruit, xanthan gum, and stevia extract have a glycemic index of 0, erythritol has a glycemic index of 1 while tagatose has a glycemic index of 3. Maltitol has a glycemic index of 35 while lactitol has a glycemic index of 5. Fifteen subjects were evaluated and the GI calculated as described previously herein.

[5] = Acute randomized controlled trial: adverse events symptom score; assay type: in vivo, human
Procedure: An acute randomized controlled trial was carried out to investigate the effects of an NSC of the type disclosed herein on postprandial insulin, glucose and fructose responses.
Subjects (N=15) men and non-pregnant, non-lactating women, 18-75 years of age each with a BMI of 18-40 kg/m^2 inclusive and normal glycemia and (i) fasting serum glucose <126 mg/dl (<7.0 mmol/l) (or in whole blood ≦6.1 mmol/L); (ii) blood pressure <130/85; (iii) no prescription drugs within 1 month of the first study visit after screening except for the birth control pill, lipid lowering medications or small doses of anxiolytics/sedatives to assist sleeping; and (iv) no major illness or surgery requiring hospitalization within 3 months of the first study visit after screening.
The test foods consisted of 2 isovolumetric beverages: 30 g sucrose control and 30 g of sweetener blend dissolved in 500 ml water. The sucrose test meal acted as the control. Test meals were administered in a randomized order.
Adverse events reported following ingestion of the meals containing either an NSC of the type disclosed herein or sucrose included bloating, belching, nausea, diarrhea and flatulence. Each issue was scored and record for the time period indicated in Table 5 which provides the symptom score (mm) for: Bloating, Belching, Nausea, Diarrhea and Flatulence at 0 min, 120 min, before Dinner (D) and before breakfast (B).

The Caramelization Test = assay type: physicochemical; details: 1 cup sweetener with 1/2 cup water until it browns
Description: 1 cup of caramelized sugar or 1 cup of sweetener is mixed with ½ cup of water and swirled to mix until it browns. A sweetener is considered to pass the test and be enough like sugar when it browns within 25% of the time when the sugar browns.

In the case of `O=C(CO)C(O)C(O)C(O)CO` (stereo not shown) [Allulose], the Glycemic test (blood glucose response [1]) was “PASS (pass the test when then blood glucose response is less than 5% of glucose)” and the Repression test (blood glucose response [2]) was “PASS”.
In the case of `OC[C@@H](O)[C@@H](O)CO` [Erythritol, erythritol], the Glycemic test (blood glucose response [1]) is listed as “PASS (pass the test when then blood glucose response is less than 5% of glucose)”, the “glycemic index of individual component” value (blood glucose level [3]) is listed as 1 and the Repression test (blood glucose response [2]) is listed as “FAIL”.
In the case of `OC[C@@H](O)[C@@H](O[C@H]1O[C@H](CO)[C@@H](O)[C@H](O)[C@H]1O)[C@H](O)[C@@H](O)CO` [Maltitol, maltitol], the “glycemic index of individual component” value (blood glucose level [3]) is listed as 35.
For `OC[C@H]1O[C@@](CO)(O[C@H]2O[C@H](CO)[C@@H](O)[C@H](O)[C@H]2O)[C@@H](O)[C@@H]1O` [Sugar, sucrose], the Glycemic test (blood glucose response [1]) was “FAIL”, the “Expected GI” value (blood glucose level [4]; calculated from GI of individual components and their weight percent) was 65 and the “Observed GI” value (blood glucose level [4]; fifteen subjects) was 65. The “Glycemic Index” value (blood glucose level [4]; sweetener ingredient of the cake mix, Table 2) was 65 for sugar, the Repression test (blood glucose response [2]) was “FAIL” and the Belching symptom score ([5]; 0 min) was 0.60 mm. It also gave a Bloating symptom score ([5]; 0 min) of 7.93 mm, a Diarrhea symptom score ([5]; 0 min) of 0.27 mm and a Flatulence symptom score ([5]; 0 min) of 1.47 mm. It also gave a Nausea symptom score ([5]; 0 min) of 0.33 mm, a Belching symptom score ([5]; 120 min) of 0.40 mm and a Bloating symptom score ([5]; 120 min) of 4.67 mm. It also gave a Diarrhea symptom score ([5]; 120 min) of 0.80 mm, a Flatulence symptom score ([5]; 120 min) of 1.40 mm and a Nausea symptom score ([5]; 120 min) of 1.87 mm. It also gave a Belching symptom score ([5]; before Dinner (D)) of 1.79 mm, a Bloating symptom score ([5]; before Dinner (D)) of 5.43 mm and a Diarrhea symptom score ([5]; before Dinner (D)) of 6.93 mm. The Flatulence symptom score ([5]; before Dinner (D)) was 8.93 mm, the Nausea symptom score ([5]; before Dinner (D)) was 2.57 mm and the Belching symptom score ([5]; before breakfast (B)) was 0.57 mm. The Bloating symptom score ([5]; before breakfast (B)) was 5.71 mm, the Diarrhea symptom score ([5]; before breakfast (B)) was 5.79 mm and the Flatulence symptom score ([5]; before breakfast (B)) was 7.50 mm. The Nausea symptom score ([5]; before breakfast (B)) was 0.57 mm and the Caramelization test (The Caramelization Test) was “PASS (pass the test and be enough like sugar when it browns within 25% of the time when the sugar browns)”.
In the case of `O=C(CO)[C@@H](O)[C@@H](O)[C@H](O)CO` [Tagatose, (3S,4S,5R)-1,3,4,5,6-pentahydroxy-hexan-2-one], the Glycemic test (blood glucose response [1]) is listed as “PASS (pass the test when then blood glucose response is less than 5% of glucose)”, the “glycemic index of individual component” value (blood glucose level [3]) is listed as 3 and the Repression test (blood glucose response [2]) is listed as “FAIL”. For the same molecule, the Caramelization test (The Caramelization Test) was “FAIL-”.
In the case of `OC[C@@H](O)[C@@H](O[C@@H]1O[C@H](CO)[C@H](O)[C@H](O)[C@H]1O)[C@H](O)[C@@H](O)CO` [lactitol], the “glycemic index of individual component” value (blood glucose level [3]) is given as 5.
